How the values were obtained:
wild type c-kit = wild type c-kit (Homo sapiens (Human), UniProt P10721); assay: PathScan phospho c-kit (Tyr719) sandwich ELISA in SCF-stimulated M-07e cells (pKIT assay); format: cell-based; conditions: ELISA assay (values not marked *)
Summary of the method: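 Serum- and GM-CSF-starved M-07e cells (4 h) pretreated 60 min at 37 °C with an 8-point compound series in duplicate (0.25% DMSO), then stimulated with human SCF (500 ng/mL stock) 10 min at room temperature. Lysate c-kit Tyr719 phosphorylation quantified by sandwich ELISA with TMB read-out; IC50 from 4-parameter logistic fit.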

[1] = target: human P-glycoprotein (P-gp, MDR1) (Homo sapiens (Human), UniProt P08183); assay: MDCK-MDR1 cell monolayer drug transport assay (P-gp efflux ratio); format: in vitro ADME; conditions: pH 7.4, MDCK-MDR1 cells, 1 uM concentration of compound, read-out: Pgp Efflux Ratio, 1 uM
Experimental: The potential for compounds prepared according to the examples to be substrates of P-gp was evaluated using in vitro on Multidrug Resistance Mutation 1-Mardin-Darby Canine Kidney (MDCK-MDR1)) (Mardin-Darby Canine Kidney) cell monolayers overexpressing P-gp grown on permeable supports.
Preparation for cell seeding: MDCK-MDR1 cell culture medium consisting of Dulbecco's Modified Eagle's Medium (DMEM) with high glucose and L-glutamine supplemented with: 10% FBS, 0.1 mg/mL of streptomycin, 0.6 μg/mL of Kanamycin sulfate and 100 units of penicillin was prepared. 50 μL of culture medium was added to each well of the Transwell insert. The Transwell insert was removed from the reservoir and 25 mL of culture medium was added. After incubation at 37° C., 5% CO2 for 1 hour, the plates were ready for cell seeding. The cells were cultivated in T-75 flasks in a cell culture incubator set at 37° C., 5% CO2, 95% relative humidity until they reached 80-90% confluence before detaching and splitting. The cultivated cells were rinsed in T-75 flasks with 5 mL PBS and aspirated off, and then 1.5 mL trypsin/EDTA was added and incubated at 37° C. for approximately 5 to 10 minutes or until the cells detach and float. The trypsin/EDTA was inactived by adding excess serum containing medium. The cell suspension was transferred to a conical tube and the cells pelleted by centrifugation at 120×g for 10 minutes. The cells were resuspended in seeding medium at a density of 1.56×10^6 cells/mL. This cell concentration was used to seed 5.45×10^5 cells/cm^2.
Seeding and feeding of MDCK-MDR1 cells into transwell plates: 50 μL of the above cell suspension was added to each well of a previously prepared Transwell plate and the plate was incubated for 4-8 days, replacing the medium every other day beginning no sooner than 48 hours after initial plating. The medium must be replaced on the day before conducting the experiment, and the procedure for medium changes was carried out as follows. The plate was removed from the incubator and placed in a hood. The medium was aspirated from a reservoir and each Transwell was inserted. 100 μL of culture medium was added to each well of the Transwell inserts and 25 mL of culture medium to reservoir tray. The plate was returned to the incubator.
Assessment of cell monolayer integrity: When the 4-day cultured MDCK-MDR1 cells reached confluence and were differentiated, the medium was removed from the reservoir and Transwell inserts. 100 μL of prewarmed culture medium was added to each transwell insert and 25 mL was added to the reservoir tray. The electrical resistance across the monolayer was measured using a Millicell Epithelial Volt-Ohm measuring system. The electrical resistance for each well was measured and then the plate was returned to the incubator. TEER values were calculated using this formula: TEER measurement (ohms)×Area of membrane (cm2)=TEER value (ohm cm2). Any monolayer with a TEER value <42 ohms·cm2, indicating poor monolayer formation, was discarded.
Performing the drug transport assay: The MDCK-MDR1 plate was removed from the incubator and the monolayer was washed, exchanging the volume two times using pre-warmed HBSS (Hank's balanced salt solution) (10 mM HEPES, pH 7.4). The plate was then incubated at 37° C. for 30 minutes. A 1 μM compound working solution was prepared as follows: Added […] of stock solution (10 mM in DMSO) of test compound and control compounds (Metoprolol, Prazosin and Imatinib) in one 96 well plate, then added 98 μL of DMSO into the same well to obtain 0.2 mM stock solutions (note a stock solution was further diluted 1:10 for eventually making a 0.1 uM compound working solution). Transfered 3 μL of 0.2 mM solution into 597 μL of transport buffer in one 96 well plate to prepare the 1 μM compound working solution. The plate was shaken at 1000 rpm for 10 min.

Sequence of human P-glycoprotein (P-gp, MDR1) (P08183 whole entry): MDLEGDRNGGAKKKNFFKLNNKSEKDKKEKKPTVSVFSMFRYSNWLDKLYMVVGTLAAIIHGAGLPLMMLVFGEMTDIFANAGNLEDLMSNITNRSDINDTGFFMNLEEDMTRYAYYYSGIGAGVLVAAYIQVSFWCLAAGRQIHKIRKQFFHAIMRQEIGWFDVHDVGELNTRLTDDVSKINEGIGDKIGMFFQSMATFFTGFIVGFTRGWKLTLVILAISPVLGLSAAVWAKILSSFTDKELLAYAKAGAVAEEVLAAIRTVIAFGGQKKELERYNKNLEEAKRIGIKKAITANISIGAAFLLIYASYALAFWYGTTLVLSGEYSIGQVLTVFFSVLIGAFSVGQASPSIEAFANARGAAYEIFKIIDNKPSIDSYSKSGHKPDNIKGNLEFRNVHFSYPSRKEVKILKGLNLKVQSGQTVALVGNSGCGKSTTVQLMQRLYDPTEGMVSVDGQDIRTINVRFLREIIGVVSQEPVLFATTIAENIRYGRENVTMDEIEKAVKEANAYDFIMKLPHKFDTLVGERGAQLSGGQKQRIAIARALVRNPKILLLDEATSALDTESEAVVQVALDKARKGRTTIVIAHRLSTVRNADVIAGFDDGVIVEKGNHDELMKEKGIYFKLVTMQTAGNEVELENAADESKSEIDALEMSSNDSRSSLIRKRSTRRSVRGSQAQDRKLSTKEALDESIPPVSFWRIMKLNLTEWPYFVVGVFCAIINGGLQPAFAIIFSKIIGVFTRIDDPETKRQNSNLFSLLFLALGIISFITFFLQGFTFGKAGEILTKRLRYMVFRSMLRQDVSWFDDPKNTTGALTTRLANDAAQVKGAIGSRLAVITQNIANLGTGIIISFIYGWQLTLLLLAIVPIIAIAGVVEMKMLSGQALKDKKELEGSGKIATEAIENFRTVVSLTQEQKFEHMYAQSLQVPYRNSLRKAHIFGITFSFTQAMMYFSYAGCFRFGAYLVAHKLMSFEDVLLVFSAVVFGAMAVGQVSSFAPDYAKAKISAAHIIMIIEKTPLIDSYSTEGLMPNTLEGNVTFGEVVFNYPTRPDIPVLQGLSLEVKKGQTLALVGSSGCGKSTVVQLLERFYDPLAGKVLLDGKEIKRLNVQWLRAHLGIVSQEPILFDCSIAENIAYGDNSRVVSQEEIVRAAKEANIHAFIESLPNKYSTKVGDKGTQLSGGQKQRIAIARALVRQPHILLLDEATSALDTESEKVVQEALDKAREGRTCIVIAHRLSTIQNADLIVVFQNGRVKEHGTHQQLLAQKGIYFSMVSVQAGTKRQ
Sequence of wild type c-kit (P10721 26-976): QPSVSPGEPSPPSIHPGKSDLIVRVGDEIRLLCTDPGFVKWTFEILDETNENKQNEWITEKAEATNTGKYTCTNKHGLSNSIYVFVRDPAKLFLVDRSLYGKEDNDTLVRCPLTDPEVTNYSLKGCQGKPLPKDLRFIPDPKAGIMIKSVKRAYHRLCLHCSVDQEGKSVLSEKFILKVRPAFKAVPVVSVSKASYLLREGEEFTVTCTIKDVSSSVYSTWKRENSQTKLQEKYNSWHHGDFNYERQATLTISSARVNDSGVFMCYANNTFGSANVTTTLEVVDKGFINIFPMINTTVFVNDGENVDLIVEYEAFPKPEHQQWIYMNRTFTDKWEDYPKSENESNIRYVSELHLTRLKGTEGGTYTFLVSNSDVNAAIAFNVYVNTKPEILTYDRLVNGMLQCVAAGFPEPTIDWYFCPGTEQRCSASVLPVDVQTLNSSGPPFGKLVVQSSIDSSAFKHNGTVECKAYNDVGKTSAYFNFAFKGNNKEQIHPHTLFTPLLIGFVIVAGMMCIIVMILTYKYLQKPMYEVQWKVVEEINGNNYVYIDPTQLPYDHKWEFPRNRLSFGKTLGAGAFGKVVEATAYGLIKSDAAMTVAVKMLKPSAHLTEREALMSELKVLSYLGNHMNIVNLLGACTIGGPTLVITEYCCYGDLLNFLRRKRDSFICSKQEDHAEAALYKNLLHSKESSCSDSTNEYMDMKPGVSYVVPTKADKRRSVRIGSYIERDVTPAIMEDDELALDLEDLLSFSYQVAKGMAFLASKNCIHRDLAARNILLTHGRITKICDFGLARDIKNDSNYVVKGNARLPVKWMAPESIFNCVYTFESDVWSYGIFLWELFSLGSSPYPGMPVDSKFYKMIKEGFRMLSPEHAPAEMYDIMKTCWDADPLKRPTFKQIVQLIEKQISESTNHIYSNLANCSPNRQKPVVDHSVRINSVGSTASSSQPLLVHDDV

Structure (SMILES)	IC50 (wild type c-kit) [nM]	efflux ratio at 2 h, 1 µM [1]
COCCS(=O)(=O)N1CC(n2nnc(-c3ccc(C)c(NC(=O)c4cnn5ccccc45)c3)n2)C1 [Example 178, N-(5-(2-(1-((2-methoxyethyl)sulfonyl)azetidin-3-yl)-2H-tetrazol-5-yl)-2-methylphenyl)pyrazolo[1,5-a]pyridine-3-carboxamide]	17.6	4.7
Cc1nn(CC2(O)CCOCC2)cc1-c1ccn2ncc(C(=O)Nc3cc(-n4nnc([C@H]5C[C@@H]5F)n4)ccc3Cl)c2c1 (single isomer, unassigned) [Example 272, N-(2-chloro-5-(5-((1R,2S)-2-fluorocyclopropyl)-2H-tetrazol-2-yl)phenyl)-5-(1-((4-hydroxytetrahydro-2H-pyran-4-yl)methyl)-3-methyl-1H-pyrazol-4-yl)pyrazolo[1,5-a]pyridine-3-carboxamide or N-(2-chloro-5-(5-((1S,2R)-2-fluorocyclopropyl)-2H-tetrazol-2-yl)phenyl)-5-(1-((4-hydroxytetrahydro-2H-pyran-4-yl)methyl)-3-methyl-1H-pyrazol-4-yl)pyrazolo[1,5-a]pyridine-3-carboxamide]	0.9	7
Cc1ccc(-c2nnn(C3CC3)n2)cc1NC(=O)c1cnn2ccc(-c3cnn(CCCN4CCOCC4)c3)cc12 [Example 220, N-(5-(2-cyclopropyl-2H-tetrazol-5-yl)-2-methylphenyl)-5-(1-(3-morpholinopropyl)-1H-pyrazol-4-yl)pyrazolo[1,5-a]pyridine-3-carboxamide]	1.8	12.4
Cc1cc(C#N)c(-c2nnn(C3CC(F)(F)C3)n2)cc1NC(=O)c1cnn2ccc(N3CCOCC3)cc12 [Example 165, N-(4-cyano-5-(2-(3,3-difluorocyclobutyl)-2H-tetrazol-5-yl)-2-methylphenyl)-5-morpholinopyrazolo[1,5-a]pyridine-3-carboxamide]	26.6	6.6
COC(=O)N1CC(n2nnc(-c3ccc(C)c(NC(=O)c4cnn5ccc(OCCC(C)(C)O)cc45)c3)n2)C1 [Example 65, methyl 3-(5-(3-(5-(3-hydroxy-3-methylbutoxy)pyrazolo[1,5-a]pyridine-3-carboxamido)-4-methylphenyl)-2H-tetrazol-2-yl)azetidine-1-carboxylate]	33.7	23.5
O=C(Nc1cc(-n2nnc([C@H]3C[C@@H]3F)n2)ccc1Cl)c1cnn2ccc(-c3cnn(CC4(O)CCOCC4)c3)cc12 (single isomer, unassigned) [Example 271, N-(2-chloro-5-(5-((1R,2S)-2-fluorocyclopropyl)-2H-tetrazol-2-yl)phenyl)-5-(1-((4-hydroxytetrahydro-2H-pyran-4-yl)methyl)-1H-pyrazol-4-yl)pyrazolo[1,5-a]pyridine-3-carboxamide or N-(2-chloro-5-(5-((1S,2R)-2-fluorocyclopropyl)-2H-tetrazol-2-yl)phenyl)-5-(1-((4-hydroxytetrahydro-2H-pyran-4-yl)methyl)-1H-pyrazol-4-yl)pyrazolo[1,5-a]pyridine-3-carboxamide]	0.3	2.2
COC(=O)N1CC(n2nnc(-c3ccc(C)c(NC(=O)c4cnn5ccc(N6CC[C@H]6CO)cc45)c3)n2)C1 [Example 90, methyl (S)-3-(5-(3-(5-(2-(hydroxymethyl)azetidin-1-yl)pyrazolo[1,5-a]pyridine-3-carboxamido)-4-methylphenyl)-2H-tetrazol-2-yl)azetidine-1-carboxylate]	87.7	33.9
COC(=O)N1CC(n2nnc(-c3ccc(C)c(NC(=O)c4cnn5ccc(NCC6CCO6)cc45)c3)n2)C1 (centres unmarked) [Example 95, methyl 3-(5-(4-methyl-3-(5-((oxetan-2-ylmethyl)amino)pyrazolo[1,5-a]pyridine-3-carboxamido)phenyl)-2H-tetrazol-2-yl)azetidine-1-carboxylate]	30.5	21.5
COC(=O)N1CC(c2cnn(-c3ccc(C)c(NC(=O)c4cnn5ccc(NCC(F)F)cc45)c3)n2)C1 [Example 139, methyl 3-(2-(3-(5-((2,2-difluoroethyl)amino)pyrazolo[1,5-a]pyridine-3-carboxamido)-4-methylphenyl)-2H-1,2,3-triazol-4-yl)azetidine-1-carboxylate]	26.3	18.9
Cc1nn(C[C@H]2CN(C)CCO2)c(C)c1-c1ccn2ncc(C(=O)Nc3cc(-c4nnn(C5CC5)n4)ccc3Cl)c2c1 [Example 274, (R)-N-(2-chloro-5-(2-cyclopropyl-2H-tetrazol-5-yl)phenyl)-5-(3,5-dimethyl-1-((4-methylmorpholin-2-yl)methyl)-1H-pyrazol-4-yl)pyrazolo[1,5-a]pyridine-3-carboxamide]	0.6	1.7
Cc1ccc(-c2nnn([C@H]3C[C@@H](C(F)(F)F)C3)n2)cc1NC(=O)c1cnn2ccc(N3CCN(CCO)CC3)cc12 [Example 106, 5-(4-(2-hydroxyethyl)piperazin-1-yl)-N-(2-methyl-5-(2-((1s,3s)-3-(trifluoromethyl)cyclobutyl)-2H-tetrazol-5-yl)phenyl)pyrazolo[1,5-a]pyridine-3-carboxamide]	5.8	37.4
COCCNc1cc2c(C(=O)Nc3cc(-c4nnn(C5CN(C(=O)OC)C5)n4)ccc3C)cnn2cc1Cl [Example 145, methyl 3-(5-(3-(6-chloro-5-((2-methoxyethyl)amino)pyrazolo[1,5-a]pyridine-3-carboxamido)-4-methylphenyl)-2H-tetrazol-2-yl)azetidine-1-carboxylate]	157	6.4
COCCNc1ccn2ncc(C(=O)Nc3cc(-n4ncc(C5CN(C(=O)OC)C5)n4)ccc3C)c2c1 [Example 110, methyl 3-(2-(3-(5-((2-methoxyethyl)amino)pyrazolo[1,5-a]pyridine-3-carboxamido)-4-methylphenyl)-2H-1,2,3-triazol-4-yl)azetidine-1-carboxylate]	17.7	8.7
COC(=O)N1CC(n2nnc(-c3ccc(C)c(NC(=O)c4cnn5ccc(N6CC7(COC7)C6)cc45)c3)n2)C1 [Example 98, methyl 3-(5-(3-(5-(2-oxa-6-azaspiro[3.3]heptan-6-yl)pyrazolo[1,5-a]pyridine-3-carboxamido)-4-methylphenyl)-2H-tetrazol-2-yl)azetidine-1-carboxylate]	47.8	15.5
COCCNc1ccn2ncc(C(=O)Nc3cc(-c4nnn(C5CC(F)C5)n4)ccc3C)c2c1 (centres unmarked) [Example 151, N-(5-(2-(3-fluorocyclobutyl)-2H-tetrazol-5-yl)-2-methylphenyl)-5-((2-methoxyethyl)amino)pyrazolo[1,5-a]pyridine-3-carboxamide]	4.1	4.8
Cc1ccc(-c2nnn([C@H]3C[C@@H](C(F)(F)F)C3)n2)cc1NC(=O)c1cnn2ccc(N3CC(C)(O)C3)cc12 [Example 107, 5-(3-hydroxy-3-methylazetidin-1-yl)-N-(2-methyl-5-(2-((1s,3s)-3-(trifluoromethyl)cyclobutyl)-2H-tetrazol-5-yl)phenyl)pyrazolo[1,5-a]pyridine-3-carboxamide]	5.5	28.9

From patent US20240262826A1, “WILD TYPE KIT INHIBITORS” (Blueprint Medicines Corporation, priority 2022, published 2024)
